# According to US6756408B2, “Methods and materials for protecting against myocardial cell damage related to coronary intervention by regional beta blocker therapy” (Board of Regents, The University of Texas System, priority 2001, dated 2004):
# System: patients with coronary artery disease undergoing PCI
# Assay: Randomized, double-blind, placebo-controlled trial of intracoronary propranolol before percutaneous coronary intervention
# Type: in vivo
# Procedure: Study population: This study was a randomized, double-blind, placebo-controlled trial. Patients with coronary artery disease undergoing PCI were considered for inclusion. Patients on chronic beta blockers were included. Exclusion criteria included myocardial infarction (“MI”) within 24 h or recent MI with elevation of CK or CKMB at time of randomization (a normal CK and CKMB and elevated troponin T allowed inclusion); cardiogenic shock; systolic blood pressure<100 mm Hg; heart rate<50/min; NYHA class III or IV heart failure; severe left ventricular dysfunction (ejection fraction<30%); severe renal insufficiency (creatinine>3.0 mg/dl); allergy to propranolol; or second planned intervention within 30 days. Patients with chronic obstructive pulmonary disease (“COPD”) were not specifically excluded.
# Study protocol: Before initiation of PCI, all patients were pretreated with aspirin and received weight-adjusted heparin, with a target activated clotting time of >300 seconds in the absence of a glycoprotein IIb/IIIa (“GP IIb/IIIa”) inhibitor and 200-300 seconds with a GP IIb/IIIa inhibitor, which was allowed but not mandated.
# Patients were randomized in a 1:1 ratio to receive either placebo or propranolol. The randomization allocation code was generated using complete block design. Randomization was performed after coronary angiography confirmed the need for PCI. In patients with a total occlusion, the lesion was crossed with a guide wire before randomization.
# Study drug kits were packaged by hospital pharmacy to be indistinguishable from each other with a concentration of 1 mg/ml; the identity of the injectate (i.e., propranolol or placebo) was not known to the investigators or to the patients. […] The study drug was thus delivered directly into the myocardial region supplied by the stenotic coronary artery undergoing PCI. Balloon inflation was performed after the IC injection of propranolol or placebo. Blood samples were taken prior to PCI, immediately after PCI, and every 8 h for 24 h to assay CK and CKMB. Blood samples were taken at 16 h for troponin T analysis. Additional blood levels were obtained when any patient experienced possible ischemic symptoms. The 30-day contact was made by clinic visit or telephone interview.
# Study endpoints: The primary endpoint was the incidence of post-procedural elevation of CKMB above the upper limit of normal (“ULN”). The “threshold” for the development of an excess in adverse events relative to the level of CKMB appears to be a continuous function beginning with any elevation of CKMB or troponin T with the frequency of long-term adverse events, particular death, increasing with the level of enzyme rise (Simoons, which is hereby incorporated by reference). Secondary endpoints included (1) incidence of post-procedure total CK elevation, (2) incidence of troponin T elevation (in those patients with normal baseline values), (3) median peak values of CK, CKMB, and troponin T, (4) rescue therapy with GP IIb/IIIa inhibitors, and (5) combination of death from any cause, myocardial necrosis, recurrent MI within 30 days, or severe myocardial ischemia requiring urgent coronary-artery bypass surgery or target lesion revascularisation (“TLR”) within 30 days of intervention (“MACE”).
# Urgent target lesion revascularisation included any coronary artery bypass graft surgery or a second PCI on the original target lesion performed for recurrent myocardial ischemia. Successful PCI was defined as post-procedure residual stenosis at the target lesion<30% of reference vessel diameter without major adverse outcome (death, Q wave MI, emergent CABG). Major bleeding was defined as bleeding requiring transfusion, surgery, prolongation of hospital stay, or >8% drop in hematocrit after PCI. Rescue GP IIb/IIIa use was defined as drug given after the guide wire passage during PCI.
# [1] = patients with mechanical complications, n = 17
# [2] = patients with no mechanical complication, n = 58
smiles,measurement,setting,value
"CC(C)NCC(O)COc1cccc2ccccc12 (stereo not shown) [Propranolol, propranolol]",Change in heart rate or blood pressure after IC injection,15 μg/kg intracoronary,no change
same,Incidence of elevation of CKMB (>5 ng/ml) after PCI,0.015 mg/kg,17%
same,Incidence of elevation of Troponin T (>0.10 ng/ml) after PCI,"0.015 mg/kg, 16 h",13%
same,Death,"30 days after PCI, n = 75",0%
same,Recurrent MI,"30 days after PCI, n = 75",1%
same,Urgent/emergent TLR,"30 days after PCI, n = 75",0%
same,Significant bleeding,after PCI,3%
same,Combined 30d MACE,"death, myocardial necrosis, recurrent MI, urgent TLR within 30 days, n = 75",18%
same,"""Rescue"" GP IIb/IIIa inhibitors use required",drug given after guide wire passage during PCI,11%
same,Adverse systemic effects after IC injection,including respiratory difficulties in 5 patients with history of COPD or asthma,no adverse systemic effects
same,"Heart rate, post drug","largest change after drug administration, baseline 67 ± 11",66 ± 11 beats/min
same,"Systolic BP, post drug","largest change after drug administration, baseline 139 ± 25",137 ± 23 mmHg
same,CKMB elevation ≧3 times upper limit of normal,number of patients out of 75,7 patients
same,Elevation of CK (% of patients),[1],18%
same,Elevation of CKMB (% of patients),[1],41%
same,Elevation of troponin T (% of patients),[1],35%
same,Elevation of CK (% of patients),[2],0%
same,Elevation of CKMB (% of patients),[2],10%
same,Elevation of troponin T (% of patients),[2],5%
same,Median value of CKMB,"post PCI, all patients",2.1
same,Median value of total CK,"post PCI, all patients",67
same,Median value of troponin T,"post PCI, all patients",0.03
same,"Favorable effect on preventing myocardial necrosis, subgroup analysis","relative risk by subgroups, FIG. 3",broadly applicable
same,Recurrent MI (number of patients),within 30 days,1 patients
same,Urgent TLR required (number of patients),within 30 days,0 patients
